We go through 11 compounds from patent publication US6335447B1, “Quinolonecarboxylic acid derivatives or salts thereof” (Toyama Chemical Co., Ltd., priority 1998, dated 2002).

Series [1] deals with Staphylococcus aureus (S. aureus F-1924). The series can be described thus: MIC against Staphylococcus aureus, agar dilution. As to conditions: Mueller Hinton agar, 37° C., 20 hours, read-out: MIC (lowest concentration which inhibited visible growth of the cells). The series is classed as cell-based. As to the method:
According to the standard method of Japan Chemotherapy Society [CHEMOTHERAPY, Vol. 29, No. 1, p. 76-79 (1981)], Staphylococcus aureus (S. aureus F-1924) was cultivated in Mueller Hinton broth [manufactured by Difco] at 37° C. for 20 hours and the cell density was adjusted to 10^6 cells/plate (10^8 cells/ml). A loopful of the bacterial suspension was inoculated on Mueller Hinton agar medium [manufactured by Difco] and incubated at 37° C. for 20 hours. Whether or not the growth of cells occurred was observed and MIC (μg/ml) was defined as the lowest concentration which inhibited visible growth of the cells.
(In general: Agar dilution tests growth on a series of plates holding different concentrations.)

The subject of series [2] is ddy male mice. The series can be described thus: Micronucleus test. The format is in vivo. As to conditions: intraperitoneally at 500 mg/Kg. How it is done:
According to the description in Dokusei Shiken Koza 12 (Chijinshokan, 1991), pages 147-153, micronucleus test was carried out using ddy male mice. As a result, the compounds (a), (c), (d) and (g) were negative when administered intraperitoneally at 500 mg/Kg.

Series [3] concerns ddy male mice. As to the kind of experiment: Acute toxicity. Particulars: three ddy male mice; intraperitoneally 500 mg/Kg. The format is in vivo. As to the method:
Three ddy male mice were intraperitoneally administered with 500 mg/Kg of (a), (b), (d) or (g).

SMILES strings stand for the structures. ≈ marks a conversion by molar mass, not a printed value.

With `CC1CCc2c(N3CCC(O)CC3)c(F)cc3c(=O)c(C(=O)O)cn1c23` (racemic) [k, (±)-9-Fluoro-6,7-dihydro-8-(4-hydroxy-1-piperidinyl)-5-methyl-1-oxo-1-1H,5H-benzo[i,j]quinolizine-2-carboxylic acid, reference compound], the MIC in series [1] was found to be 1.56 mg/L (≈ 4.33 µM). With `Cc1cc(-c2ccc3c(=O)c(C(=O)O)cn(C4CC4)c3c2C)cc(C)n1` [a, 1-Cyclopropyl-7-(2,6-dimethyl-4-pyridyl)-8-methyl-4-oxo-1,4-dihydro-3-quinolinecarboxylic acid], the Micronucleus test result in the series on ddy male mice [2] is recorded as “negative”. Besides, the “Acute toxicity (death of animals)” value in the series on ddy male mice [3] was “In no case, the animals were dead”. Also, the MIC in series [1] worked out at 0.2 mg/L (≈ 0.574 µM).

Regarding `Cc1cc(-c2ccc3c(=O)c(C(=O)O)cn(C4CC4)c3c2C)cc(CO)n1` [b, 1-Cyclopropyl-7-(2-hydroxymethyl-6-methyl-4-pyridyl)-8-methyl-4-oxo-1,4-dihydro-3-quinolinecarboxylic acid], the “Acute toxicity (death of animals)” value in the series with ddy male mice [3] was “In no case, the animals were dead”. Also, in series [1], the MIC was 0.39 mg/L (≈ 1.07 µM). Consider `Cc1ccc(-c2ccc3c(=O)c(C(=O)O)cn(C4CC4)c3c2C)cn1` [c, 1-Cyclopropyl-7-(6-methyl-3-pyridyl)-8-methyl-4-oxo-1,4-dihydro-3-quinolinecarboxylic acid], for which the Micronucleus test result with ddy male mice [2] was “negative”. In addition, the MIC in series [1] is 0.39 mg/L (≈ 1.17 µM).

Regarding `CNc1ncc(-c2ccc3c(=O)c(C(=O)O)cn(C4CC4)c3c2C)cc1C` [d, 1-Cyclopropyl-8-methyl-7-[5-methyl-6-(methylamino)-3-pyridyl]-4-oxo-1,4-dihydro-3-quinolinecarboxylic acid], the Micronucleus test result in the series on ddy male mice [2] is listed as “negative”. For the same compound, in the series with ddy male mice [3], the “Acute toxicity (death of animals)” value is listed as “In no case, the animals were dead”. For the same compound, in series [1], the MIC is 0.2 mg/L (≈ 0.55 µM). In the case of `Cc1cc(-c2ccc3c(=O)c(C(=O)O)cn(C4CC4)c3c2OC(F)F)cnc1N` [e, 7-(6-Amino-5-methyl-3-pyridyl)-1-cyclopropyl-8-(difluoromethoxy)-4-oxo-1,4-dihydro-3-quinolinecarboxylic acid], in series [1], the MIC was determined as 0.78 mg/L (≈ 1.94 µM). For `COc1c(-c2cnc(N)c(C)c2)ccc2c(=O)c(C(=O)O)cn(C3CC3)c12` [f, 7-(6-Amino-5-methyl-3-pyridyl)-1-cyclopropyl-8-methoxy-4-oxo-1,4-dihydro-3-quinolinecarboxylic acid], the MIC in series [1] came to 0.39 mg/L (≈ 1.07 µM).

Consider `Cc1cc(-c2ccc3c(=O)c(C(=O)O)cn(C4CC4)c3c2C)cnc1N` [g, 7-(6-Amino-5-methyl-3-pyridyl)-1-cyclopropyl-8-methyl-4-oxo-1,4-dihydro-3-quinolinecarboxylic acid], for which the Micronucleus test result in the series on ddy male mice [2] is on record as “negative”. For the same compound, in the series on ddy male mice [3], the “Acute toxicity (death of animals)” value is recorded as “In no case, the animals were dead”. Also, in series [1], the MIC was found to be 0.1 mg/L (≈ 0.286 µM).

With `Cc1c(-c2ccc(N)nc2)ccc2c(=O)c(C(=O)O)cn(C3CC3)c12` [h, 7-(6-Amino-3-pyridyl)-1-cyclopropyl-8-methyl-4-oxo-1,4-dihydro-3-quinolinecarboxylic acid], in series [1], the MIC is 0.1 mg/L (≈ 0.298 µM).

On to `Cc1cc(-c2cc(C)c3c(=O)c(C(=O)O)cn(C4CC4)c3c2C)cc(C)n1` [i, 1-Cyclopropyl-7-(2,6-dimethyl-4-pyridyl)-5,8-dimethyl-4-oxo-1,4-dihydro-3-quinolinecarboxylic acid], for which the MIC in series [1] worked out at 0.2 mg/L (≈ 0.552 µM). The same measure, in the same setting: the same measure for `Cc1cc(-c2cc(N)c3c(=O)c(C(=O)O)cn(C4CC4)c3c2C)cnc1C` [j, 5-Amino-1-cyclopropyl-7-(5,6-dimethyl-3-pyridyl)-8-methyl-4-oxo-1,4-dihydro-3-quinolinecarboxylic acid]: 0.39 mg/L (≈ 1.07 µM).
